The source of these data is patent US10829493B2, “Compositions and methods for treating KIT- and PDGFRA-mediated diseases” (Blueprint Medicines Corporation, priority 2019, dated 2020).

In assay [1] the target is KIT D816V (Homo sapiens (Human), UniProt P10721, D816V). Nature of the assay: KIT D816V biochemical enzymatic activity assay (EZReader 2 mobility shift). As to conditions: at APPKM for ATP, 20 μM ATP, 60 minutes. From the text: (§1) PDGFRα and KIT enzymatic activity was monitored using the Perkin Elmer electrophoretic mobility shift technology platform, the EZReader 2.
KIT D816V (Homo sapiens (Human), UniProt P10721, D816V), sequence (P10721 26-976 D816V): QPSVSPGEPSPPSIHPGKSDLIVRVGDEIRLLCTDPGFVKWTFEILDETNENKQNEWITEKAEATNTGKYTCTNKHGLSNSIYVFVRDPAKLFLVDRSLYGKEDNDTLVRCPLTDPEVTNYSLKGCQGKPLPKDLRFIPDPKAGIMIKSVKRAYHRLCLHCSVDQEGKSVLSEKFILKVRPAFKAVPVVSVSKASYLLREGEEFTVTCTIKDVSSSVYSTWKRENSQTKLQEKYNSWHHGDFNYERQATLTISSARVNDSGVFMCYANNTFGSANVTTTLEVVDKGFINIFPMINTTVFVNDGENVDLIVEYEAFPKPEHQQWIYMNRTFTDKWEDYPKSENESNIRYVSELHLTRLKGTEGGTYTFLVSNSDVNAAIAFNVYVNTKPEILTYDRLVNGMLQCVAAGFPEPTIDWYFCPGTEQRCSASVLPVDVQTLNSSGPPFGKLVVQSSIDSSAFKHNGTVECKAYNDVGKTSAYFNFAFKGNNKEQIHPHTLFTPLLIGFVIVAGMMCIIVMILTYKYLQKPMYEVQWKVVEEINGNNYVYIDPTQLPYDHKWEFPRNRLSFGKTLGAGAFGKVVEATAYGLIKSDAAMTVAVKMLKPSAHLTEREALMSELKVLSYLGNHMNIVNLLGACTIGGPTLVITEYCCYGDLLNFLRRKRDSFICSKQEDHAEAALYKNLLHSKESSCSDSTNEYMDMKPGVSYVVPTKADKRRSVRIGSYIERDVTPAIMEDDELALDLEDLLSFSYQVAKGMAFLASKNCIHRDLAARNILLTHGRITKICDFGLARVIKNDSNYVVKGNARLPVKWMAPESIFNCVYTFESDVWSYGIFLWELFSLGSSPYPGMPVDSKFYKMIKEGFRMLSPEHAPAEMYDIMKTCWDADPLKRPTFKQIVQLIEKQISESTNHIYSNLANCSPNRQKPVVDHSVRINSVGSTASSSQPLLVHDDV
(§2) Within the linear, steady-state phase of the kinase enzymatic reaction, the mixed pool of phosphorylated (product) and non-phosphorylated (substrate) peptides was passed through the microfluidic system of the PerkinElmer EZ Reader 2, under an applied electric potential difference. The presence of the phosphate group on the product peptide provided a difference in mass and charge between that of the substrate peptide, resulting in a separation of the substrate and product pools in the sample (Perrin et al., Expert Opin Drug Discovery 2010 Jan. 5(1):51-63).
(§3) As the product and substrate peptide mixture passes the lasers within the instrument, these pools are detected (λex=488 nm, λem=568 nm) and resolved as separate peaks. The ratio between these peaks reflects the activity of the compound at that concentration, in that well, under those conditions.
(§4) All test articles were dissolved in 100% DMSO at a stock concentration of 10 mM. A 100×, 10-point, 4-fold serial dilution of all test compounds was created in 100% DMSO, starting at a relevant concentration, usually 1 mM. A volume of 0.130 μL of each concentration was transferred to the relevant well of a 384-well assay plate (Greiner 781 201) using a TTPLabtech Mosquito nano-liter dispenser. Using the Multidrop, the remaining constituents of the reaction were then added to the 0.130 μL of compound as follows:
The plate was read on a Caliper EZReader 2.

For assay [2], the system named is UT-7 cells. In words: UT-7 cell proliferation with SCF stimulation as a measure of wild-type KIT activity (CellTiter-Glo). The format is cell-based, human. As to conditions: SCF-stimulated UT-7 cell proliferation. From the text:
UT-7 Cell Proliferation with SCF Stimulation Assay as a Measure of Wild-Type KIT Activity
UT-7 cells are human megakaryoblastic leukemia cell lines that can be grown in culture with dependence on granulocyte macrophage colony stimulating factor (GM-CSF) or stem cell factor (SCF). UT-7 cells respond to SCF stimulation by activation of the KIT receptor tyrosine kinase and subsequent downstream signaling that can support cell growth and proliferation (Kuriu et al, 1999; Komatsu et al, 1991; Sasaki et al, 1995). Test compounds were assayed for their ability to inhibit SCF-stimulated proliferation of UT-7 cells.
Inhibition of SCF-stimulated UT-7 cell proliferation was assessed using the CellTiter-Glo assay that quantifies the amount of adenosine triphosphate (ATP) present, which is a readout of metabolically active cells and is directly proportional to the number of viable cells in culture. The ability of test compounds to inhibit SCF-stimulated UT-7 cell proliferation was determined using a 10-point dose curve ranging from 25 μM to 95.4 pM of test compound.
UT-7 cells were maintained in IMDM supplemented with 10% FBS, 5 ng/mL GM-CSF and 100 units/mL Penicillin-Streptomycin and grown in a 37° C. humidified tissue culture incubator. UT-7 cells were washed once with serum free, GM-CSF free IMDM. Cells were then resuspended in IMDM containing 4% FBS and 50 ng/mL SCF and seeded at 2500 cells per well in a volume of 22 μL in a 384-well microplate. A 10-point dose concentration series of test compounds (25.0 μM to 95.4 pM) were then added to the cells in a volume of 3.1 μL to each well (0.25% DMSO final concentration) and placed in a tissue culture incubator (5% CO2, 37° C.) for 72 hours. After 3-days with test compound, CellTiter-Glo reagent was prepared fresh and 25 μL of reagent was added to each well. The plate was mixed by shaking for 10 minutes at RT at 300 rpm on a plate shaker. The plate was read on an EnVision plate reader using the Ultra Sensitive Luminescence protocol for a 384-well plate.
(In general: Cellular ATP, detected with luciferase, serves as a proxy for viable cell number.)

In assay [3] the target is PDGFRα D842V (Homo sapiens (Human), UniProt P16234, D842V). In words: PDGFRα D842V biochemical enzymatic activity assay (EZReader 2 mobility shift). As to conditions: at APPKM for ATP, 25 μM ATP, 90 minutes.
PDGFRα D842V, sequence (P16234 24-1089 D842V): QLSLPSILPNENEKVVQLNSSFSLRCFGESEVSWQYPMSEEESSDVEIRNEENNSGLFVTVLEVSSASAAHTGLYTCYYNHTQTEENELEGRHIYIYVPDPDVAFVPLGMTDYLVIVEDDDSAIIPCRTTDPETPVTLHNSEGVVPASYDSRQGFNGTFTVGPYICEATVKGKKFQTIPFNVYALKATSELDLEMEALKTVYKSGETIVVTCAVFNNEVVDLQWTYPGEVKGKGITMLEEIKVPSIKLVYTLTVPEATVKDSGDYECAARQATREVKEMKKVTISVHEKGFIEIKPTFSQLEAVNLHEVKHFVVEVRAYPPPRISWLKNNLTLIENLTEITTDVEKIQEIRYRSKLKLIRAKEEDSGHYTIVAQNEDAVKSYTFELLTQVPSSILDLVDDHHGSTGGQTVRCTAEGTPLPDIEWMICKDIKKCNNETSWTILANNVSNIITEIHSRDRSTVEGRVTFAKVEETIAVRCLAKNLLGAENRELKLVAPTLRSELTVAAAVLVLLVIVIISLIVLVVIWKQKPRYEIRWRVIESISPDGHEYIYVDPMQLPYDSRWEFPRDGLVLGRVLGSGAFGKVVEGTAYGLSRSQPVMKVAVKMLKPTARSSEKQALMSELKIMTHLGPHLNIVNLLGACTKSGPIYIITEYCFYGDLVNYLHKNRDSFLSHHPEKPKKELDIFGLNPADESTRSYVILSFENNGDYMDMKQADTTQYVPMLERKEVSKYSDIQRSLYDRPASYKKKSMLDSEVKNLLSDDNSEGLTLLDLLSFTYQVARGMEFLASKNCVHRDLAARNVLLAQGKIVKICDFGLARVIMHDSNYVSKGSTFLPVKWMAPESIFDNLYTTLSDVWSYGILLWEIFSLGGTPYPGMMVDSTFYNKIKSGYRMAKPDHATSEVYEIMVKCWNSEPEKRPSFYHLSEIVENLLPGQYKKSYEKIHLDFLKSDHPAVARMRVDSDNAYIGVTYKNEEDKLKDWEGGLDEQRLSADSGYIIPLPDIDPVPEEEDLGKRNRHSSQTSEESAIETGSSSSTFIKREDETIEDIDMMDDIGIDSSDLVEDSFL
Text: as §1, §2, §3
Inhibition of KIT (D816V) PDGFRα (D842V) Mutant Biochemical Enzymatic Activity
as §4
The reaction was stopped by the addition of 70 μl of Stop buffer (100 mM HEPES pH 7.5, 0.015% Brij 35, 35 mM EDTA and 0.2% of Coating Reagent 3, Caliper Lifesciences). The plate was read on a Caliper EZReader 2.

For assay [4], the target named is wt KIT kinase (Homo sapiens (Human), UniProt P10721). Nature of the assay: Wild-type KIT binding assay (Kd determination, phage-tagged kinase, qPCR). The method, then:
Kd Determinations. For most assays, including wt KIT kinase, kinase-tagged T7 phage strains were prepared in an E. coli host derived from the BL21 strain. E. coli were grown to log-phase and infected with T7 phage and incubated with shaking at 32° C. until lysis. […] The liganded beads were blocked with excess biotin and washed with blocking buffer (SeaBlock (Pierce), 1% BSA, 0.05% Tween 20, 1 mM DTT) to remove unbound ligand and to reduce non-specific binding. […] Test compounds were prepared as 111× stocks in 100% DMSO. Kds were determined using an 11-point 3-fold compound dilution series with three DMSO control points. […] The compounds were then diluted directly into the assays such that the final concentration of DMSO was 0.9%. All reactions were performed in polypropylene 384-well plate. Each was a final volume of 0.02 ml. […] The kinase concentration in the eluates was measured by qPCR.
Binding Constants (Kds). Binding constants (Kds) were calculated with a standard dose-response curve using the Hill equation: Response=Background+Signal−Background 1+(KdHill Slope/DoseHill Slope). The Hill Slope was set to −1. Curves were fitted using a non-linear least square fit with the Levenberg-Marquardt algorithm.
A general note: In qPCR the cycle at which signal appears reflects the starting amount.

Assay [5] has as its target KIT D816V (Homo sapiens (Human), UniProt P10721, D816V/V560G). In words: HMC1.2 autophosphorylation assay (phospho-Y719 KIT AlphaLISA). Type of assay: cell-based. As to conditions: HMC1.2 cell line, KIT autophosphorylation at tyrosine 719, 90 minutes; read-out: KIT (P-KIT HMC1.2 (nM)). The method, then:
10,000 HMC1.2 cells were incubated in 22 μL culture media (phenol-red free IMDM, no serum) in each well of a 384-well plate and serum starved overnight in a tissue culture incubator (5% CO2, 37° C.). […] 10 μL of 100 μg/mL streptavidin donor beads (Perkin Elmer) were added to each well, blocked from light with solid black adhesive and shaken at 300 rpm at room temperature for 2 hours. Fluorescence signal was obtained on Envision (Perkin Elmer) by AlphaScreen 384 well HTS protocol.
For orientation: In Alpha technology, singlet oxygen from a donor bead excites a nearby acceptor bead.

SMILES strings stand for the structures.

KIT D816V (Homo sapiens (Human), UniProt P10721, D816V/V560G), sequence (P10721 26-976 V560G/D816V): as the sequence (P10721 26-976 D816V) above, with V535G counted along it
wt KIT kinase, sequence (P10721 26-976): as the sequence (P10721 26-976 D816V) above, with V791D counted along it

As to `C[C@](N)(c1ccc(F)cc1)c1cnc(N2CCN(c3ncnn4cc(-c5cnn([C@H]6COC[C@H]6O)c5)cc34)CC2)nc1` (single isomer, unassigned) [Compound 20], the IC50 in assay [1] was at most 0.3 nM; in assay [2] (Homo sapiens, UT7, 72 h) it was 90.1 to 150 nM; in assay [3], at most 0.3 nM; in assay [5], below 4.5 nM. Further, the Kd – broadly, the concentration at which binding is half-saturated – in assay [4] is below 10 nM.

In turn, `C[C@H](CO)n1cc(-c2cc3c(N4CCN(c5ncc([C@@](C)(N)c6ccc(F)cc6)cn5)CC4)ncnn3c2)cn1` [Compound 5, (R)-2-(4-(4-(4-(5-((S)-1-Amino-1-(4-fluorophenyl)ethyl)pyrimidin-2-yl)piperazin-1-yl)pyrrolo[2,1-f][1,2,4]triazin-6-yl)-1H-pyrazol-1-yl)propan-1-ol] registered an IC50 in assay [2] (Homo sapiens, UT7, 72 h) below 90 nM.

The compound `C[C@@H](CO)n1cc(-c2cc3c(N4CCN(c5ncc([C@@](C)(N)c6ccc(F)cc6)cn5)CC4)ncnn3c2)cn1` [Compound 6, (S)-2-(4-(4-(4-(5-((S)-1-amino-1-(4-fluorophenyl)ethyl)pyrimidin-2-yl)piperazin-1-yl)pyrrolo[2,1-f][1,2,4]triazin-6-yl)-1H-pyrazol-1-yl)propan-1-ol] had an IC50 in assay [2] (Homo sapiens, UT7, 72 h) below 90 nM.

With `C[C@](N)(c1ccc(F)cc1)c1cnc(N2CCN(c3ncnn4cc(-c5cnn([C@H]6C[C@H](O)C6)c5)cc34)CC2)nc1` [Compound 11, trans-3-{4-[4-(4-{5-[1-Amino-1-(4-fluoro-phenyl)-ethyl]-pyrimidin-2-yl}-piperazin-1-yl)-pyrrolo[2,1-f][1,2,4]triazin-6-yl]-pyrazol-1-yl}-cyclobutanol], the IC50 was at most 0.3 nM in assay [1], 90.1 to 150 nM in assay [2] (72 hours), at most 0.3 nM in assay [3] and 4.6 to 10 nM in assay [5]. Also, the Kd in assay [4] is below 10 nM.

As for `C[C@](N)(c1ccc(F)cc1)c1cnc(N2CCN(c3ncnn4cc(-c5cnn(C6COC6)c5)cc34)CC2)nc1` [Compound 7, (S)-1-(4-Fluorophenyl)-1-(2-(4-(6-(1-(oxetan-3-yl)-1H-pyrazol-4-yl)pyrrolo[2,1-f][1,2,4]triazin-4-yl)piperazin-1-yl)pyrimidin-5-yl)ethan-1-amine], the IC50 in assay [2] (Homo sapiens, UT7, 72 h) is 90.1 to 150 nM; in assay [3], at most 0.3 nM.

In assay [2] (Homo sapiens, UT7, 72 h), `CC(C)(CO)n1cc(-c2cc3c(N4CCN(c5ncc([C@@](C)(N)c6ccc(F)cc6)cn5)CC4)ncnn3c2)cn1` [Compound 2, (S)-2-(4-(4-(4-(5-(1-amino-1-(4-fluorophenyl)ethyl)pyrimidin-2-yl)piperazin-1-yl)pyrrolo[2,1-f][1,2,4]triazin-6-yl)-1H-pyrazol-1-yl)-2-methylpropan-1-ol] gave an IC50 of 150 to 200 nM.

On to `C[C@](N)(c1ccc(F)cc1)c1cnc(N2CCN(c3ncnn4cc(-c5cnn(C6(CO)CC6)c5)cc34)CC2)nc1` [Compound 13, (S)-(1-(4-(4-(4-(5-(1-Amino-1-(4-fluorophenyl)ethyl)pyrimidin-2-yl)piperazin-1-yl)pyrrolo[2,1-f][1,2,4]triazin-6-yl)-1H-pyrazol-1-yl)cyclopropyl)methanol], for which the IC50 in assay [2] (Homo sapiens, UT7, 72 h) was 90.1 to 150 nM; in assay [3], at most 0.3 nM.

Take `C[C@H](O)Cn1cc(-c2cc3c(N4CCN(c5ncc([C@@](C)(N)c6ccc(F)cc6)cn5)CC4)ncnn3c2)cn1` [Compound 9]: the IC50 in assay [2] (Homo sapiens, UT7, 72 h) was 90.1 to 150 nM; in assay [3], at most 0.3 nM.

Take `C[C@](N)(c1ccc(F)cc1)c1cnc(N2CCN(c3ncnn4cc(-c5cnn(CC6(O)CC6)c5)cc34)CC2)nc1` [Compound 12, (S)-1-((4-(4-(4-(5-(1-Amino-1-(4-fluorophenyl)ethyl)pyrimidin-2-yl)piperazin-1-yl)pyrrolo[2,1-f][1,2,4]triazin-6-yl)-1H-pyrazol-1-yl)methyl)cyclopropan-1-ol]: the IC50 in assay [2] (Homo sapiens, UT7, 72 h) was 90.1 to 150 nM; in assay [3], at most 0.3 nM.

In assay [2] (Homo sapiens, UT7, 72 h), `CC(C)(O)Cn1cc(-c2cc3c(N4CCN(c5ncc([C@@](C)(N)c6ccc(F)cc6)cn5)CC4)ncnn3c2)cn1` [Compound 1, (S)-1-(4-(4-(4-(5-(1-Amino-1-(4-fluorophenyl)ethyl)pyrimidin-2-yl)piperazin-1-yl)pyrrolo[2,1-f][1,2,4]triazin-6-yl)-1H-pyrazol-1-yl)-2-methylpropan-2-ol] showed an IC50 of 150 to 200 nM.

With `C[C@](N)(c1ccc(F)cc1)c1cnc(N2CCN(c3ncnn4cc(-c5cnn([C@H]6COC[C@@H]6O)c5)cc34)CC2)nc1` (single isomer, unassigned) [Compound 18], the IC50 is at most 0.3 nM in assay [1]; 90.1 to 150 nM in assay [2] (Homo sapiens, UT7, 72 h); at most 0.3 nM in assay [3]; below 4.5 nM in assay [5]. In assay [4], the Kd was below 10 nM.

As to `C[C@@H](O)Cn1cc(-c2cc3c(N4CCN(c5ncc([C@@](C)(N)c6ccc(F)cc6)cn5)CC4)ncnn3c2)cn1` [Compound 3, (R)1-{4-[4-(4-{5-[(S)-1-Amino-1-(4-fluoro-phenyl)-ethyl]-pyrimidin-2-yl}-piperazin-1-yl)-pyrrolo[2,1-f][1,2,4]triazin-6-yl]-pyrazol-1-yl}-propan-2-ol], the IC50 in assay [2] (Homo sapiens, UT7, 72 h) was below 90 nM.

As for `C[C@](N)(c1ccc(F)cc1)c1cnc(N2CCN(c3ncnn4cc(-c5cnn([C@@H]6COC[C@@H]6O)c5)cc34)CC2)nc1` (single isomer, unassigned) [Compound 17], the IC50 was 0.31 to 1 nM in assay [1]; 90.1 to 150 nM in assay [2] (Homo sapiens, UT7, 72 h); at most 0.3 nM in assay [3]; 4.6 to 10 nM in assay [5]. For the same compound, the Kd in assay [4] is below 10 nM.

Take `C[C@](N)(c1ccc(F)cc1)c1cnc(N2CCN(c3ncnn4cc(-c5cnn([C@@H]6CC[C@H]6O)c5)cc34)CC2)nc1` (single isomer, unassigned) [Compound 22]: the IC50 was at most 0.3 nM in assay [1]; 90.1 to 150 nM in assay [2] (Homo sapiens, UT7, 72 h); at most 0.3 nM in assay [3]; below 4.5 nM in assay [5]. The same compound yielded a Kd in assay [4] below 10 nM.
